# Measured values: patent publication US20110028686A1, “Protein binding miniature proteins” (Yale University, priority 2000, published 2011)
# Values joined by “and” are separate entries in the source; they are usually repeats but may differ in a detail not shown here. Identical values can stand only once. Like-named read-outs stand apart in the source and are kept apart here. Square brackets hold non-standard residues; d marks the D form. Ends that are not written are not given here. Peptide text beside a SMILES is read from it. * marks the point of attachment. X1 = C[C@]12O[C@H](C[C@]1(O)C(=O)NCCCCCCCCNC(=O)C*)n1c3ccccc3c3c4c(c5c6ccccc6n2c5c31)CNC4=O; Fluorescein(5-NHCOCH2) = O=C(C*)Nc1ccc2c(c1)C(=O)OC21c2ccc(O)cc2Oc2cc(O)ccc21; pS = N[C@@H](COP(=O)(O)O)C(=O)O
# What was measured:
# PKA = PKA (Homo sapiens, UniProt P17612); assay: PKA phosphotransferase assay, streptavidin-matrix capture of [32P]-phosphorylated substrates; format: biochemical
# Akt kinase (PKB) = Akt kinase (PKB) (Homo sapiens, UniProt P31749); assay: Phosphotransferase assay, PKB; format: biochemical; conditions: 1-K252a up to 100 nM; 1 up to 5 μM
# Akt kinase (PKB), sequence (P31749 whole entry, species assumed): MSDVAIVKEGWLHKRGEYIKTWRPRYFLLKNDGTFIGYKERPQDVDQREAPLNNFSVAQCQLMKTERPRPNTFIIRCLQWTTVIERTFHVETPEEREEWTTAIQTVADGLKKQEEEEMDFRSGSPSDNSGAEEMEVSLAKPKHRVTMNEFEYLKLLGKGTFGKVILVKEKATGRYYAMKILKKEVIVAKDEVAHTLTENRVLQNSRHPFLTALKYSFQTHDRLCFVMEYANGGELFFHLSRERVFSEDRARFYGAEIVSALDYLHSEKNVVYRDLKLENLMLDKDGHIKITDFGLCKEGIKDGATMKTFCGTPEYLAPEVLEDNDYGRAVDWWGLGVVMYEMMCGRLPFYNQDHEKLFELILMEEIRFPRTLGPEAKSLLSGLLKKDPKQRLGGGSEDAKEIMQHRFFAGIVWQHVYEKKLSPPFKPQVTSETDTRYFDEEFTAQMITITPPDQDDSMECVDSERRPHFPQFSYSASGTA
# [1] = target: protein kinase Cα (PKC-α) (Homo sapiens, UniProt P17252); assay: Phosphotransferase assay, PKC-α; format: biochemical; conditions: 1-K252a up to 100 nM; 1 up to 5 μM
# [2] = tested on: Ca++/calmodulin kinase II (CamKII); assay: Phosphotransferase assay, CamKII; format: biochemical; conditions: 1-K252a up to 100 nM; 1 up to 5 μM
# [3] = tested on: cGMP-dependent protein kinase (PKG); assay: Phosphotransferase assay, PKG; format: biochemical; conditions: for inhibition of PKG phosphotransferase activity: 1 up to 5 μM
# [4] = target: T1, HisKIX (His-tagged CBP KIX domain) (Mus musculus, UniProt P45481); assay: Equilibrium fluorescence polarization, HisKIX binding; conditions: for Kd: 25° C.
# T1 construct: The CBP KIX-coding region (residues 586 to 672) of pGEX-KT KIX 10-672; made in house; host or cells: E. coli BL21(DE3) pArg
# T1 sequence (P45481 586-672): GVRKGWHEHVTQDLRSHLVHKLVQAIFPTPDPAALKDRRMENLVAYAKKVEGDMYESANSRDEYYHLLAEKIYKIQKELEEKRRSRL
# CBP KIX Y658F = target: T2, CBP KIX Y658F (Mus musculus, UniProt P45481, Y658F); assay: Equilibrium fluorescence polarization, CBP KIX variant Y658F; format: binding
# T2 construct: made in house; host or cells: E. coli BL21(DE3) pArg
# T2 sequence (P45481 586-665 Y658F limits assumed): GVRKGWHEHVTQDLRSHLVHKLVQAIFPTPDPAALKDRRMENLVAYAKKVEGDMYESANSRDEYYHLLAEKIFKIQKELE
# CBP KIX K662A = target: T3, CBP KIX K662A (Mus musculus, UniProt P45481, K662A); assay: Equilibrium fluorescence polarization, CBP KIX variant K662A; format: binding
# T3 construct: made in house; host or cells: E. coli BL21(DE3) pArg
# T3 sequence (P45481 586-665 K662A limits assumed): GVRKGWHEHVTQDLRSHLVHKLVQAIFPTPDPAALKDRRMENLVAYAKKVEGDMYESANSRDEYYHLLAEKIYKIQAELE
# CBP KIX Y650A = target: T4, CBP KIX Y650A (Mus musculus, UniProt P45481, Y650A); assay: Equilibrium fluorescence polarization, CBP KIX variant Y650A; format: binding
# T4 construct: made in house; host or cells: E. coli BL21(DE3) pArg
# T4 sequence (P45481 586-665 Y650A limits assumed): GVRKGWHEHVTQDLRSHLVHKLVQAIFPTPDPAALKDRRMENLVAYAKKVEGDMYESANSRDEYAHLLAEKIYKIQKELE
# CBP KIX L603A = target: T5, CBP KIX L603A (Mus musculus, UniProt P45481, L603A); assay: Equilibrium fluorescence polarization, CBP KIX variant L603A; format: binding
# T5 construct: made in house; host or cells: E. coli BL21(DE3) pArg
# T5 sequence (P45481 586-665 L603A limits assumed): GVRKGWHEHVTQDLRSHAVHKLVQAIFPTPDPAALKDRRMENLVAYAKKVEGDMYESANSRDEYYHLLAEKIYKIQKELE
# CBP KIX LL652-3AA = target: T6, CBP KIX LL652-3AA (Mus musculus, UniProt P45481, L652A/L653A); assay: Equilibrium fluorescence polarization, CBP KIX variant LL652-3AA; format: binding
# T6 construct: made in house; host or cells: E. coli BL21(DE3) pArg
# T6 sequence (P45481 586-665 L652A/L653A): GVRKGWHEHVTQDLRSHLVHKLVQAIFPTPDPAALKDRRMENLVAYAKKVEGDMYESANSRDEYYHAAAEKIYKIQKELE
# CBP KIX K606A = target: T7, CBP KIX K606A (Mus musculus, UniProt P45481, K606A); assay: Equilibrium fluorescence polarization, CBP KIX variant K606A; format: binding
# T7 construct: made in house; host or cells: E. coli BL21(DE3) pArg
# T7 sequence (P45481 586-665 K606A limits assumed): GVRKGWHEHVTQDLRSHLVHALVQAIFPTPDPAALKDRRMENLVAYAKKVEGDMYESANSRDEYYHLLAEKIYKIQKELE
# CBP KIX I657A = target: T8, CBP KIX I657A (Mus musculus, UniProt P45481, I657A); assay: Equilibrium fluorescence polarization, CBP KIX variant I657A; format: binding
# T8 construct: made in house; host or cells: E. coli BL21(DE3) pArg
# T8 sequence (P45481 586-665 I657A limits assumed): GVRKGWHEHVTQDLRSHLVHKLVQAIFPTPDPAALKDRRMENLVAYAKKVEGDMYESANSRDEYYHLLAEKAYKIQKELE
# CBP KIX L599A = target: T9, CBP KIX L599A (Mus musculus, UniProt P45481, L599A); assay: Equilibrium fluorescence polarization, CBP KIX variant L599A; format: binding
# T9 construct: made in house; host or cells: E. coli BL21(DE3) pArg
# T9 sequence (P45481 586-665 L599A limits assumed): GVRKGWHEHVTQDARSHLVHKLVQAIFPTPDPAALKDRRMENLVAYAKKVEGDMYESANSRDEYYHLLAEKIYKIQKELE
# Carbonic anhydrase II = target: T10, Carbonic anhydrase II (Homo sapiens, UniProt P00918); assay: Fluorescence polarization specificity, carbonic anhydrase II; format: binding; conditions: carbonic anhydrase II as target protein; read-out: Kd CA
# T10 construct: purchased Sigma
# Text: (§1) Given the myriad protein surfaces present in the cell, the utility of molecules that recognize protein surfaces will depend on their ability to interact selectively with the desired protein.
# Calmodulin = target: T11, Calmodulin (Homo sapiens, UniProt P0DP23); assay: Fluorescence polarization specificity, calmodulin; format: binding; conditions: calmodulin as target protein; read-out: Kd CalM
# T11 construct: purchased Sigma
# Text: as §1
# CBP KIX wild type = target: T12, CBP KIX wild type (Mus musculus, UniProt P45481); assay: Equilibrium fluorescence polarization, wild type CBP KIX; format: binding; conditions: 25° C.
# T12 construct: made in house; host or cells: E. coli BL21(DE3) pArg
# T12 sequence (P45481 586-665 limits assumed): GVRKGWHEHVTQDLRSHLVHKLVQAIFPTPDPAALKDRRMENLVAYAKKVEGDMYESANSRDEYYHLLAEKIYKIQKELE
# CBP KIX Y658A = target: T13, CBP KIX Y658A (Mus musculus, UniProt P45481, Y658A); assay: Equilibrium fluorescence polarization, CBP KIX variant Y658A; format: binding; conditions: 25° C.
# T13 construct: made in house; host or cells: E. coli BL21(DE3) pArg
# T13 sequence (P45481 586-665 Y658A limits assumed): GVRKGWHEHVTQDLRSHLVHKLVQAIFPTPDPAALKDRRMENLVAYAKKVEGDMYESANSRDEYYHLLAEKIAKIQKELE
# CBP KIX Q661A = target: T14, CBP KIX Q661A (Mus musculus, UniProt P45481, Q661A); assay: Equilibrium fluorescence polarization, CBP KIX variant Q661A; format: binding; conditions: 25° C.
# T14 construct: made in house; host or cells: E. coli BL21(DE3) pArg
# T14 sequence (P45481 586-665 Q661A limits assumed): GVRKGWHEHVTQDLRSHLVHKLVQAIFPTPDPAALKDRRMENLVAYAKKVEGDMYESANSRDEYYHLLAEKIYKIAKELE
# CBP KIX E655A = target: T15, CBP KIX E655A (Mus musculus, UniProt P45481, E655A); assay: Equilibrium fluorescence polarization, CBP KIX variant E655A; format: binding; conditions: 25° C.
# T15 construct: made in house; host or cells: E. coli BL21(DE3) pArg
# T15 sequence (P45481 586-665 E655A limits assumed): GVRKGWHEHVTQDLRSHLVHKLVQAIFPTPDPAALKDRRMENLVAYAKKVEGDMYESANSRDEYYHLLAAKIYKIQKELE
# CBP KIX I660A = target: T16, CBP KIX I660A (Mus musculus, UniProt P45481, I660A); assay: Equilibrium fluorescence polarization, CBP KIX variant I660A; format: binding; conditions: 25° C.
# T16 construct: made in house; host or cells: E. coli BL21(DE3) pArg
# T16 sequence (P45481 586-665 I660A limits assumed): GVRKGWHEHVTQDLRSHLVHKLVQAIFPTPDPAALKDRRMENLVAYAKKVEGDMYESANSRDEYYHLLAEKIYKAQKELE
# catalytic subunit of PKA = catalytic subunit of PKA (Homo sapiens, UniProt P17612); assay: Fluorescence polarization, affinity for PKA catalytic subunit; format: binding
molecule,measurement,setting,value
"COC(=O)[C@@]1(O)C[C@H]2O[C@]1(C)n1c3ccccc3c3c4c(c5c6ccccc6n2c5c31)C(=O)NC4 [K252a, reference compound]",IC50,PKA; ATP and peptide substrate below KM,0.00014 ± 3e-06 µM
same,inhibition of PKB phosphotransferase activity,Akt kinase (PKB),inhibited by K252a
same,inhibition of PKC-α phosphotransferase activity,[1],inhibited by K252a
same,inhibition of CamKII phosphotransferase activity,[2],inhibited by K252a
same,inhibition of PKG phosphotransferase activity,[3],inhibited by K252a
"CC[C@H](C)[C@H](NC(=O)[C@H](CCCCN)NC(=O)[C@H](CCCNC(=N)N)NC(=O)[C@H](Cc1ccc(O)cc1)NC(=O)[C@H](COP(=O)(O)O)NC(=O)[C@@H]1CCCN1C(=O)[C@H](CCCNC(=N)N)NC(=O)[C@H](CCCNC(=N)N)NC(=O)[C@H](CO)NC(=O)[C@H](CC(C)C)NC(=O)[C@@H](NC(=O)[C@H](CCC(=O)O)NC(=O)[C@H](CCCNC(=N)N)NC(=O)[C@H](CCCNC(=N)N)NC(=O)[C@H](CCCCN)NC(=O)[C@H](CCC(N)=O)NC(=O)[C@H](CO)NC(=O)[C@H](CC(=O)O)NC(=O)[C@@H](N)[C@@H](C)O)[C@@H](C)CC)C(=O)N[C@@H](CC(C)C)C(=O)N[C@@H](CC(N)=O)C(=O)N[C@@H](CC(=O)O)C(=O)N[C@@H](CC(C)C)C(=O)N[C@@H](CO)C(=O)N[C@@H](CO)C(=O)N[C@@H](CC(=O)O)C(=O)N[C@@H](C)C(=O)N1CCC[C@H]1C(=O)NCC(=O)N[C@H](C(=O)N[C@@H](CSCC(=O)Nc1ccc2c(c1)C(=O)OC21c2ccc(O)cc2Oc2cc(O)ccc21)C(N)=O)C(C)C [KID-AB, reference compound] (H-TDSQKRREILSRRP[pS]YRKILNDLSSDAPGVC(Fluorescein(5-NHCOCH2))-NH2)",ΔΔG of HisKIX binding upon phosphorylation,[4],> 3.2 kcal/mol
same,"ΔΔG vs wild type CBP KIX, Y658F",CBP KIX Y658F,2.5 kcal/mol
same,"ΔΔG vs wild type CBP KIX, K662A",CBP KIX K662A,1.5 kcal/mol
same,"ΔΔG vs wild type CBP KIX, Y650A",CBP KIX Y650A,1.8 kcal/mol
same,"ΔΔG vs wild type CBP KIX, L603A",CBP KIX L603A,1.2 kcal/mol
same,"ΔΔG vs wild type CBP KIX, LL652-3AA",CBP KIX LL652-3AA,1.2 kcal/mol
same,"ΔΔG vs wild type CBP KIX, K606A",CBP KIX K606A,1.0 kcal/mol
same,"ΔΔG vs wild type CBP KIX, I657A",CBP KIX I657A,0.9 kcal/mol
same,"ΔΔG vs wild type CBP KIX, L599A",CBP KIX L599A,0.58 kcal/mol
CC[C@H](C)[C@H](NC(=O)[C@H](Cc1ccc(O)cc1)NC(=O)[C@H](Cc1ccccc1)NC(=O)[C@H](Cc1ccccc1)NC(=O)[C@H](COP(=O)(O)O)NC(=O)[C@H](CC(C)C)NC(=O)[C@H](CCCNC(=N)N)NC(=O)[C@H](CCCNC(=N)N)NC(=O)[C@@H](NC(=O)[C@@H]1CCCN1C(=O)[C@H](C)NC(=O)[C@H](CC(=O)O)NC(=O)[C@H](CC(=O)O)NC(=O)CNC(=O)[C@@H]1CCCN1C(=O)[C@H](Cc1ccc(O)cc1)NC(=O)[C@@H](NC(=O)[C@@H]1CCCN1C(=O)[C@H](CCC(N)=O)NC(=O)[C@H](CO)NC(=O)[C@@H]1CCCN1C(=O)CN)[C@@H](C)O)C(C)C)C(=O)N[C@@H](CC(C)C)C(=O)N[C@@H](CC(C)C)C(=O)N[C@@H](CC(=O)O)C(=O)N[C@@H](CC(C)C)C(=O)N[C@@H](Cc1ccc(O)cc1)C(=O)N[C@@H](CC(C)C)C(=O)N[C@@H](CC(=O)O)C(=O)N[C@@H](C)C(=O)N1CCC[C@H]1C(=O)NCC(=O)N[C@H](C(=O)N[C@@H](CSCC(=O)Nc1ccc2c(c1)C(=O)OC21c2ccc(O)cc2Oc2cc(O)ccc21)C(N)=O)C(C)C [PPKID4],Kd,"[4]; fluorescein-labeled phosphopeptide, read-out: Kd HisKIX, phosphorylated peptide (P)",0.515 ± 0.044 µM
same,Kd,"[4]; fluorescein-labeled unphosphorylated peptide, read-out: Kd HisKIX, unphosphorylated peptide (U)",12.1 ± 2.4 µM
same,Kd,Carbonic anhydrase II,106 ± 12 µM
same,Kd,Calmodulin,51 µM and 52 µM
same,Kd,CBP KIX wild type,0.61 ± 0.04 µM
same,Kd,CBP KIX Y658A,4.1 µM and 3.9 µM
same,Kd,CBP KIX Y658F; 25° C.,4.1 ± 0.2 µM
same,Kd,CBP KIX K662A; 25° C.,3.9 ± 0.3 µM
same,Kd,CBP KIX Y650A; 25° C.,3 ± 0.3 µM
same,Kd,CBP KIX L603A; 25° C.,3.4 ± 0.5 µM
same,Kd,CBP KIX LL652-3AA; 25° C.,2.9 ± 0.2 µM
same,Kd,CBP KIX K606A; 25° C.,3.1 ± 0.2 µM
same,Kd,CBP KIX I657A; 25° C.,2.7 ± 0.1 µM
same,Kd,CBP KIX Q661A,1.1 ± 0.1 µM
same,Kd,CBP KIX E655A,0.54 ± 0.05 µM
same,Kd,CBP KIX I660A,1.1 ± 0.1 µM
GPSQPTYPGDDAPVEDLIRFYNDLTYYLFVVSGRTGRRNAIHDC(Fluorescein(5-NHCOCH2))-NH2 (C-terminus assumed) [1^Flu],fold lower stability of PKA complex than PKA·PKI5-24^Flu,catalytic subunit of PKA; 100 μM ATP,3 fold
same,Kd,catalytic subunit of PKA; absence of ATP,0.23 ± 0.034 µM
same,Kd,catalytic subunit of PKA; presence of 100 μM ATP,0.099 ± 0.039 µM
GPSQPTYPGDDAPVEDLIRFYNDLTYYLFVVSGRTGRRNAIHDC-NH2 (C-terminus assumed) [compound 1],inhibition of PKB phosphotransferase activity,Akt kinase (PKB),inhibiting no other kinase tested
same,inhibition of PKC-α phosphotransferase activity,[1],inhibiting no other kinase tested
same,inhibition of CamKII phosphotransferase activity,[2],inhibiting no other kinase tested
same,inhibition of PKG phosphotransferase activity,[3],inhibiting no other kinase tested
GPSQPTYPGDDAPVEDLIRFYNDLTYYLFVVSGRTGRRNC(X1)IHD-NH2 (C-terminus assumed) [1-K252a],fold more potent than 1 alone (PKA),PKA,30 fold
same,inhibition of PKB phosphotransferase activity,Akt kinase (PKB),inhibiting no other kinase tested
same,inhibition of PKC-α phosphotransferase activity,[1],inhibiting no other kinase tested
same,inhibition of CamKII phosphotransferase activity,[2],inhibiting no other kinase tested
same,IC50,[3],0.679 ± 0.202 µM
